Experimental data reported in US10689354B2, “Aminoazole derivative” (Teijin Pharma Limited, priority 2015, dated 2020).

What was measured:
[1] = biological target: T1, androgen receptor (AR-LBD) (Rattus norvegicus, UniProt P15207); test: Evaluation of androgen receptor affinity (PolarScreen Androgen Receptor Competitor Assay Kit, Red; fluorescence polarization); settings: 22° C. for 5 hours, relative to binding rate of 1 μM DHT, read-out: AR affinity (pEC50) (converted)
T1 construct: 5 μL of 2×AR-LBD/Fluoromone AL Red Complex contained in the kit; purchased Invitrogen
T1 sequence (P15207 651-882 limits assumed): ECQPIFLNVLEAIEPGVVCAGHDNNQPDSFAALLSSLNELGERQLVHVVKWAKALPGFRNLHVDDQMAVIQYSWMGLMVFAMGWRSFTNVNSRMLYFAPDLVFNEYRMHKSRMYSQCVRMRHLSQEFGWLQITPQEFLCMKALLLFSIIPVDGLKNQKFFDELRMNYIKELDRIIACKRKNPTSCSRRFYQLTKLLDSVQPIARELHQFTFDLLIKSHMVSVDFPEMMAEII
How it was run: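 pEC50 values reflect tracer displacement from AR-LBD (Fluoromone AL Red complex) measured by fluorescence polarization after 5 h at 22° C, normalized to 1 μM DHT and fitted with a 4-parameter model.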

human androgen receptor = biological target: T2, human androgen receptor (Homo sapiens, UniProt P10275); test: Reporter assay of an androgen receptor responsive sequence (luciferase, transiently transfected HEK293 cells); type: cell-based; settings: 24 hours incubation, relative to activity of 100 nM DHT, read-out: AR transcriptive activity (pEC50) (converted)
T2 construct: expressed in transfected cells; host or cells: HEK293
T2 sequence (P10275 1-920): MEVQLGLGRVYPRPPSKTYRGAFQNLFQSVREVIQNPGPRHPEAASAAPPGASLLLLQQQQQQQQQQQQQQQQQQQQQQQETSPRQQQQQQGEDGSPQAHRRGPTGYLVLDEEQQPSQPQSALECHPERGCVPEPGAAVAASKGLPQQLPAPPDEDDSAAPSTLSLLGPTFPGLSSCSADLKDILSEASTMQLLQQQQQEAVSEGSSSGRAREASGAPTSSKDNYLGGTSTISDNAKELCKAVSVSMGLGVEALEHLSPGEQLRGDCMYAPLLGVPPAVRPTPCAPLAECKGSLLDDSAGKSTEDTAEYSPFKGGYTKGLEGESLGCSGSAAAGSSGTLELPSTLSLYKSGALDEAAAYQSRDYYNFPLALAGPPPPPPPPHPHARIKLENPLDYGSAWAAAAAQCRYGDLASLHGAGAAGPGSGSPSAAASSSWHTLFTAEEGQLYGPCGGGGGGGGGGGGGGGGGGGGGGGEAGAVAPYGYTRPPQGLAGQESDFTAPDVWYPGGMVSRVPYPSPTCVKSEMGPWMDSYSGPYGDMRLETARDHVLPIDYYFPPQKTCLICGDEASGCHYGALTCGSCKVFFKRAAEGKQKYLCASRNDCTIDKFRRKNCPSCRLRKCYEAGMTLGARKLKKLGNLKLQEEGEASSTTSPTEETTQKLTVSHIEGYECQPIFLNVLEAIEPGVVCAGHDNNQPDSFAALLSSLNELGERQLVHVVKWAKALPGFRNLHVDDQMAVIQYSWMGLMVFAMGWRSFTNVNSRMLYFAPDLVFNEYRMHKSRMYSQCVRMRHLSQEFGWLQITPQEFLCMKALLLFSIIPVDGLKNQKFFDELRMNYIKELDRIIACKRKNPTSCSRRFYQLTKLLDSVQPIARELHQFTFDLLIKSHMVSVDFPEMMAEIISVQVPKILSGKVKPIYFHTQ
How it was run: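 HEK293 cells transiently transfected for 3 h with ARE-firefly luciferase, full-length human AR and TK-Renilla plasmids, then exposed to compound for 24 h at 37 °C in 5% charcoal-treated FBS/DMEM. Dual-Glo luminescence read; pEC50 from 4-parameter fit relative to 100 nM DHT.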

SMILES: CCS(=O)(=O)NC(=O)c1nc(N(CCc2ccc(C#N)cc2)Cc2ccc(OC(F)(F)F)cc2)sc1C [Compound 726, 2-[2-(4-cyanophenyl)ethyl-[[4-(trifluoromethoxy)phenyl]methyl]amino]-N-ethylsulfonyl-5-methyl-thiazole-4-carboxamide]
- EC50 [1]: 31.6 nM
- EC50 (human androgen receptor): 1000 nM

SMILES: Cc1sc(N(CCc2cccs2)c2ccc(C#N)cc2)nc1C(=O)NS(C)(=O)=O [Compound 131, 2-[4-cyano-N-[2-(2-thienyl)ethyl]anilino]-5-methyl-N-methylsulfonyl-thiazole-4-carboxamide]
- EC50 [1]: 251 nM
- EC50 (human androgen receptor): 1000 nM

SMILES: Cc1sc(N(Cc2ccccc2)c2ccc(C#N)cc2)nc1C(=O)NS(=O)(=O)C(F)(F)F [Compound 364, 2-(N-benzyl-4-cyano-anilino)-5-methyl-N-(trifluoromethylsulfonyl)thiazole-4-carboxamide]
- EC50 [1]: 31.6 nM
- EC50 (human androgen receptor): > 10000 nM

SMILES: COCCCS(=O)(=O)NC(=O)c1nc(N(Cc2ccc(OC(F)(F)F)cc2)c2ccc(C#N)cc2)sc1C [Compound 157, 2-[4-cyano-N-[[4-(trifluoromethoxy)phenyl]methyl]anilino]-N-(3-methoxypropylsulfonyl)-5-methyl-thiazole-4-carboxamide]
- EC50 [1]: 31.6 nM
- EC50 (human androgen receptor): 200 nM

SMILES: Cc1sc(N(Cc2ccc(Cl)cc2)Cc2csc3cc(C#N)ccc23)nc1C(=O)NS(C)(=O)=O [Example 305, 2-[(4-chlorophenyl)methyl-[(6-cyanobenzothiophen-3-yl)methyl]amino]-5-methyl-N-methylsulfonyl-thiazole-4-carboxamide]
- EC50 [1]: > 2000 nM
- EC50 (human androgen receptor): > 10000 nM

SMILES: Cc1sc(N(CCc2ccsc2)Cc2ccccc2)nc1C(=O)NS(C)(=O)=O [Example 313, 2-[benzyl-[2-(3-thienyl)ethyl]amino]-5-methyl-N-methylsulfonyl-thiazole-4-carboxamide]
- EC50 [1]: 158 nM
- EC50 (human androgen receptor): 1000 nM

SMILES: Cc1sc(N(Cc2cc(F)c(F)c(F)c2)c2ccc(C#N)cc2)nc1C(=O)NS(C)(=O)=O [Compound 125, 2-[4-cyano-N-[(3,4,5-trifluorophenyl)methyl]anilino]-5-methyl-N-methylsulfonyl-thiazole-4-carboxamide]
- EC50 [1]: 31.6 nM
- EC50 (human androgen receptor): 126 nM

SMILES: COCCCS(=O)(=O)NC(=O)c1nc(N(Cc2ccc(Cl)cc2)c2ccc(C#N)cc2)sc1C [Example 166, 2-[N-[(4-chlorophenyl)methyl]-4-cyano-anilino]-N-(3-methoxypropylsulfonyl)-5-methyl-thiazole-4-carboxamide]
- EC50 [1]: 25.1 nM
- EC50 (human androgen receptor): 79.4 nM

SMILES: Cc1sc(N(Cc2ccc(F)c(C(F)(F)F)c2)c2ccc(C#N)cc2)nc1C(=O)NS(C)(=O)=O [Example 173, 2-[4-cyano-N-[[4-fluoro-3-(trifluoromethyl)phenyl]methyl]anilino]-5-methyl-N-methylsulfonyl-thiazole-4-carboxamide]
- EC50 [1]: 25.1 nM
- EC50 (human androgen receptor): 79.4 nM

SMILES: COCCCS(=O)(=O)NC(=O)c1nc(N(Cc2ccc(OC(F)F)c(Cl)c2)c2ccc(C#N)cc2)sc1C [Example 189, 2-[N-[[3-chloro-4-(difluoromethoxy)phenyl]methyl]-4-cyano-anilino]-N-(3-methoxypropylsulfonyl)-5-methyl-thiazole-4-carboxamide]
- EC50 [1]: 31.6 nM
- EC50 (human androgen receptor): 158 nM

SMILES: COCCCS(=O)(=O)NC(=O)c1nc(N(Cc2ncc(Cl)cc2F)c2ccc(C#N)cc2)sc1C [Example 169, 2-[N-[(5-chloro-3-fluoro-2-pyridyl)methyl]-4-cyano-anilino]-N-(3-methoxypropylsulfonyl)-5-methyl-thiazole-4-carboxamide]
- EC50 [1]: 200 nM
- EC50 (human androgen receptor): 501 nM

SMILES: Cc1sc(N(CCc2ccc(C#N)cc2)Cc2ccc(Cl)cc2)nc1C(=O)NS(=O)(=O)C1CC1 [Compound 714, 2-[(4-chlorophenyl)methyl-[2-(4-cyanophenyl)ethyl]amino]-N-cyclopropylsulfonyl-5-methyl-thiazole-4-carboxamide]
- EC50 [1]: 79.4 nM
- EC50 (human androgen receptor): 1260 nM

SMILES: Cc1sc(N(Cc2ccc(OCc3ccccn3)cc2)c2ccc(C#N)cc2)nc1C(=O)NS(C)(=O)=O [Compound 568, 2-[4-cyano-N-[[4-(2-pyridylmethoxy)phenyl]methyl]anilino]-5-methyl-N-methylsulfonyl-thiazole-4-carboxamide]
- EC50 [1]: 158 nM
- EC50 (human androgen receptor): 794 nM

SMILES: Cc1sc(N(CCc2ccc(Cl)cc2Cl)Cc2ccccc2)nc1C(=O)NS(C)(=O)=O [Example 315, 2-[benzyl-[2-(2,4-dichlorophenyl)ethyl]amino]-5-methyl-N-methylsulfonyl-thiazole-4-carboxamide]
- EC50 [1]: 79.4 nM
- EC50 (human androgen receptor): 158 nM

SMILES: Cc1sc(N(CCc2ccsc2)c2ccc(C#N)cc2)nc1C(=O)NS(C)(=O)=O [Compound 132, 2-[4-cyano-N-[2-(3-thienyl)ethyl]anilino]-5-methyl-N-methylsulfonyl-thiazole-4-carboxamide]
- EC50 [1]: 316 nM
- EC50 (human androgen receptor): 1580 nM

SMILES: Cc1sc(N(Cc2cccc3nsnc23)c2ccc(C#N)cc2)nc1C(=O)NS(C)(=O)=O [Compound 437, 2-[N-(2,1,3-benzothiadiazol-4-ylmethyl)-4-cyano-anilino]-5-methyl-N-methylsulfonyl-thiazole-4-carboxamide]
- EC50 [1]: 50.1 nM
- EC50 (human androgen receptor): 126 nM

SMILES: Cc1sc(N(CCc2ccc3ccccc3c2)c2ccc(C#N)cc2)nc1C(=O)NS(C)(=O)=O [Compound 88, 2-[4-cyano-N-[2-(2-naphthyl)ethyl]anilino]-5-methyl-N-methylsulfonyl-thiazole-4-carboxamide]
- EC50 [1]: 316 nM
- EC50 (human androgen receptor): > 10000 nM

SMILES: Cc1sc(N(Cc2ccsc2)c2ccc(C#N)cc2)nc1C(=O)NS(C)(=O)=O [Compound 85, 2-[4-cyano-N-(3-thienylmethyl)anilino]-5-methyl-N-methylsulfonyl-thiazole-4-carboxamide]
- EC50 [1]: 200 nM
- EC50 (human androgen receptor): 316 nM

SMILES: Cc1sc(N(Cc2ccc(C(F)F)cc2)c2ccc(C#N)cc2)nc1C(=O)NS(C)(=O)=O [Compound 94, 2-[4-cyano-N-[[4-(difluoromethyl)phenyl]methyl]anilino]-5-methyl-N-methylsulfonyl-thiazole-4-carboxamide]
- EC50 [1]: 39.8 nM
- EC50 (human androgen receptor): 25.1 nM

SMILES: Cc1sc(N(CCOc2ccccc2)c2ccc(C#N)cc2)nc1C(=O)NS(C)(=O)=O [Compound 20, 2-[4-cyano-N-(2-phenoxyethyl)anilino]-5-methyl-N-methylsulfonyl-thiazole-4-carboxamide]
- EC50 [1]: 63.1 nM
- EC50 (human androgen receptor): 1580 nM

SMILES: Cc1sc(N(CCc2ccc(Cl)cc2)CC2CCCCC2)nc1C(=O)NS(C)(=O)=O [Compound 697, 2-[2-(4-chlorophenyl)ethyl-(cyclohexylmethyl)amino]-5-methyl-N-methylsulfonyl-thiazole-4-carboxamide]
- EC50 [1]: 251 nM
- EC50 (human androgen receptor): > 10000 nM

SMILES: COCCCS(=O)(=O)NC(=O)c1nc(N(Cc2ccc(Cl)cn2)c2ccc(C#N)cc2)sc1C [Compound 163, 2-[N-[(5-chloro-2-pyridyl)methyl]-4-cyano-anilino]-N-(3-methoxypropylsulfonyl)-5-methyl-thiazole-4-carboxamide]
- EC50 [1]: 200 nM
- EC50 (human androgen receptor): 251 nM

SMILES: CS(=O)(=O)NC(=O)c1nc(N(Cc2cccc(Cl)c2)c2ccc(C#N)cc2)sc1Cl [Example 268, 5-chloro-2-[N-[(3-chlorophenyl)methyl]-4-cyano-anilino]-N-methylsulfonyl-thiazole-4-carboxamide]
- EC50 [1]: 50.1 nM
- EC50 (human androgen receptor): 63.1 nM

SMILES: [2H]c1c([2H])c([2H])c(C([2H])([2H])N(c2ccc(C#N)cc2)c2nc(C(=O)NS(C)(=O)=O)c(C)s2)c([2H])c1[2H] [Compound 388, 2-(4-cyano-N-[dideuterio-(2,3,4,5,6-pentadeuteriophenyl)methyl]anilino)-5-methyl-N-methylsulfonyl-thiazole-4-carboxamide]
- EC50 [1]: 50.1 nM
- EC50 (human androgen receptor): 63.1 nM
